From publication PMC3527451, “A Pilot Randomized, Placebo Controlled, Double Blind Phase I Trial of the Novel SIRT1 Activator SRT2104 in Elderly Volunteers” (PLoS ONE, 2012)

Tested on: elderly male and female volunteers
Experiment: Safety and tolerability, treatment-emergent adverse events in elderly volunteers
Format: in vivo, human
Details: for serum creatinine of one subject: 0.5 g/day cohort
Description: This was a phase I, single-center, double-blind, randomized, placebo-controlled, parallel-arm study to assess the safety, tolerability, pharmacokinetic and initial pharmacodynamic properties of SRT2104 (Sirtris Pharmaceuticals, Cambridge, MA, USA) administered for the first time to male and female elderly volunteers 60 to 80 years of age. Volunteers were enrolled between 01 Oct 2009 and 5 Feb 2010. Doses of 0.5 and 2.0 g or matching placebo were administered once daily for 28 consecutive days. The selection of the doses investigated in this study was based upon safety and pharmacokinetic data obtained from a previous clinical study involving SRT2104 [19]. Suitability of participants was defined on the basis of a medical history, physical examination, vital signs, electrocardiogram and laboratory measurements. Subjects were required to have normal fasting glucose levels (4.4 to 6.0 mmol/L) at screening and a body mass index of at least 18 kg/m^2 and no greater than 30 kg/m^2. […] Subjects were deemed ineligible if they participated in any clinical trial with an investigative medicinal product within the past three months prior to the first dose in the current study, had been exposed to more than three new chemical entities within 12 months of enrollment, or used other concomitant medications and herbal products in the previous 3 months that in the opinion of the investigator could interfere with the study procedures or compromise subject safety. Additional exclusions included: women of childbearing potential and non-sterile men, unless they agreed to use acceptable method of contraception; history of alcoholism or drug abuse (including a positive pre-study drug/alcohol test at screening); use of tobacco or nicotine products; history of complications when donating blood or known relative inaccessibility of veins for venipuncture; donation of blood within three months of enrolment; history of significant drug or other allergies. Participants were asked to maintain their usual level of physical activity for the duration of the study.
At every visit (including at screening and follow-up), blood and urine samples were collected for clinical laboratory assessments (general blood biochemistry, full blood count, coagulation parameters and urinalysis). On the same days, physical examination, vital signs (resting pulse rate, respiration rate, temperature, and blood pressure readings), pre- and post-dose 12-lead ECG and a review of adverse events (AE) and any medications received were also performed. Safety evaluations were based on the incidence, severity and type of AEs and clinically significant changes from baseline in physical examination findings, vital signs or clinical laboratory results.

[1] = 28 days continuous administration

Cc1nc(-c2cccnc2)sc1C(=O)Nc1ccccc1-c1cn2c(CN3CCOCC3)csc2n1 [SRT2104]
safety and tolerability (0.5 and 2.0 g/day for 28 days): generally safe and well tolerated | Abdominal distension, number of subjects (0.5 g/day (n = 8)): 1 | Abdominal distension, percent of subjects (0.5 g/day (n = 8)): (13%) | Abdominal pain lower, number of subjects (0.5 g/day (n = 8)): 1 | Abdominal pain lower, percent of subjects (0.5 g/day (n = 8)): (13%) | Any adverse event, percent of subjects (0.5 g/day (n = 8)): (100%) | Application site haematoma, number of subjects (0.5 g/day (n = 8)): 1 | Application site haematoma, percent of subjects (0.5 g/day (n = 8)): (13%) | Arthralgia, number of subjects (0.5 g/day (n = 8)): 1 | Arthralgia, percent of subjects (0.5 g/day (n = 8)): (13%) | Back pain, number of subjects (0.5 g/day (n = 8)): 1 | Back pain, percent of subjects (0.5 g/day (n = 8)): (13%) | Blood creatinine increased, number of subjects (0.5 g/day (n = 8)): 1 | Blood creatinine increased, percent of subjects (0.5 g/day (n = 8)): (13%) | Constipation, number of subjects (0.5 g/day (n = 8)): 0 | Cough, number of subjects (0.5 g/day (n = 8)): 0 | Decreased Appetite, number of subjects (0.5 g/day (n = 8)): 1 | Decreased Appetite, percent of subjects (0.5 g/day (n = 8)): (13%) | Diarrhoea, number of subjects (0.5 g/day (n = 8)): 1 | Diarrhoea, percent of subjects (0.5 g/day (n = 8)): (13%) | Dizziness, number of subjects (0.5 g/day (n = 8)): 0 | Dry eye, number of subjects (0.5 g/day (n = 8)): 0 | Dysphonia, number of subjects (0.5 g/day (n = 8)): 0 | Epistaxis, number of subjects (0.5 g/day (n = 8)): 0 | Erythema, number of subjects (0.5 g/day (n = 8)): 1 | Erythema, percent of subjects (0.5 g/day (n = 8)): (13%) | Eye pain, number of subjects (0.5 g/day (n = 8)): 0 | Fall, number of subjects (0.5 g/day (n = 8)): 0 | Fatigue, number of subjects (0.5 g/day (n = 8)): 0 | Headache, number of subjects (0.5 g/day (n = 8)): 5 | Headache, percent of subjects (0.5 g/day (n = 8)): (63%) | Insomnia, number of subjects (0.5 g/day (n = 8)): 1 | Insomnia, percent of subjects (0.5 g/day (n = 8)): (13%) | Joint stiffness, number of subjects (0.5 g/day (n = 8)): 0 | Lethargy, number of subjects (0.5 g/day (n = 8)): 1 | Lethargy, percent of subjects (0.5 g/day (n = 8)): (13%) | Limb injury, number of subjects (0.5 g/day (n = 8)): 0 | Mass, number of subjects (0.5 g/day (n = 8)): 0 | Migraine, number of subjects (0.5 g/day (n = 8)): 1 | Migraine, percent of subjects (0.5 g/day (n = 8)): (13%) | Muscle spasms, number of subjects (0.5 g/day (n = 8)): 0 | Muscular weakness, number of subjects (0.5 g/day (n = 8)): 0 | Nasopharyngitis, number of subjects (0.5 g/day (n = 8)): 1 | Nasopharyngitis, percent of subjects (0.5 g/day (n = 8)): (13%) | Nausea, number of subjects (0.5 g/day (n = 8)): 1 | Nausea, percent of subjects (0.5 g/day (n = 8)): (13%) | Number of subjects experiencing any adverse event (0.5 g/day (n = 8)): 8 | Palpitations, number of subjects (0.5 g/day (n = 8)): 1 | Palpitations, percent of subjects (0.5 g/day (n = 8)): (13%) | Procedural pain, number of subjects (0.5 g/day (n = 8)): 1 | Procedural pain, percent of subjects (0.5 g/day (n = 8)): (13%) | Rash, number of subjects (0.5 g/day (n = 8)): 1 | Rash, percent of subjects (0.5 g/day (n = 8)): (13%) | Sensation of heaviness, number of subjects (0.5 g/day (n = 8)): 1 | Sensation of heaviness, percent of subjects (0.5 g/day (n = 8)): (13%) | Sleep disorder, number of subjects (0.5 g/day (n = 8)): 1 | Sleep disorder, percent of subjects (0.5 g/day (n = 8)): (13%) | Syncope vasovagal, number of subjects (0.5 g/day (n = 8)): 0 | Tenderness, number of subjects (0.5 g/day (n = 8)): 0 | Thermal burn, number of subjects (0.5 g/day (n = 8)): 0 | Urine output increased, number of subjects (0.5 g/day (n = 8)): 1 | Urine output increased, percent of subjects (0.5 g/day (n = 8)): (13%) | Vomiting, number of subjects (0.5 g/day (n = 8)): 1 | Vomiting, percent of subjects (0.5 g/day (n = 8)): (13%) | serum creatinine of one subject (day 14 (drug stopped)): 151 µmol/L | serum creatinine of one subject (day 21 (normalization, drug restarted)): 126 µmol/L | serum creatinine of one subject (day 28 (relapse)): 154 µmol/L | serum creatinine of one subject (end of study follow up visit): 116 µmol/L | Abdominal distension, number of subjects (2.0 g/day (n = 9)): 0 | Abdominal pain lower, number of subjects (2.0 g/day (n = 9)): 0 | Any adverse event, percent of subjects (2.0 g/day (n = 9)): (100%) | Application site haematoma, number of subjects (2.0 g/day (n = 9)): 1 | Application site haematoma, percent of subjects (2.0 g/day (n = 9)): (11%) | Arthralgia, number of subjects (2.0 g/day (n = 9)): 0 | Back pain, number of subjects (2.0 g/day (n = 9)): 0 | Blood creatinine increased, number of subjects (2.0 g/day (n = 9)): 0 | Constipation, number of subjects (2.0 g/day (n = 9)): 1 | Constipation, percent of subjects (2.0 g/day (n = 9)): (11%) | Cough, number of subjects (2.0 g/day (n = 9)): 1 | Cough, percent of subjects (2.0 g/day (n = 9)): (11%) | Decreased Appetite, number of subjects (2.0 g/day (n = 9)): 0 | Diarrhoea, number of subjects (2.0 g/day (n = 9)): 2 | Diarrhoea, percent of subjects (2.0 g/day (n = 9)): (22%) | Dizziness, number of subjects (2.0 g/day (n = 9)): 1 | Dizziness, percent of subjects (2.0 g/day (n = 9)): (11%) | Dry eye, number of subjects (2.0 g/day (n = 9)): 0 | Dysphonia, number of subjects (2.0 g/day (n = 9)): 1 | Dysphonia, percent of subjects (2.0 g/day (n = 9)): (11%) | Epistaxis, number of subjects (2.0 g/day (n = 9)): 0 | Erythema, number of subjects (2.0 g/day (n = 9)): 0 | Eye pain, number of subjects (2.0 g/day (n = 9)): 0 | Fall, number of subjects (2.0 g/day (n = 9)): 0 | Fatigue, number of subjects (2.0 g/day (n = 9)): 0 | Headache, number of subjects (2.0 g/day (n = 9)): 1 | Headache, percent of subjects (2.0 g/day (n = 9)): (11%) | Insomnia, number of subjects (2.0 g/day (n = 9)): 0 | Joint stiffness, number of subjects (2.0 g/day (n = 9)): 0 | Lethargy, number of subjects (2.0 g/day (n = 9)): 0 | Limb injury, number of subjects (2.0 g/day (n = 9)): 1 | Limb injury, percent of subjects (2.0 g/day (n = 9)): (11%) | Mass, number of subjects (2.0 g/day (n = 9)): 0 | Migraine, number of subjects (2.0 g/day (n = 9)): 0 | Muscle spasms, number of subjects (2.0 g/day (n = 9)): 0 | Muscular weakness, number of subjects (2.0 g/day (n = 9)): 0 | Nasopharyngitis, number of subjects (2.0 g/day (n = 9)): 4 | Nasopharyngitis, percent of subjects (2.0 g/day (n = 9)): (44%) | Nausea, number of subjects (2.0 g/day (n = 9)): 0 | Number of subjects experiencing any adverse event (2.0 g/day (n = 9)): 9 | Palpitations, number of subjects (2.0 g/day (n = 9)): 0 | Procedural pain, number of subjects (2.0 g/day (n = 9)): 0 | Rash, number of subjects (2.0 g/day (n = 9)): 0 | Sensation of heaviness, number of subjects (2.0 g/day (n = 9)): 0 | Sleep disorder, number of subjects (2.0 g/day (n = 9)): 0 | Syncope vasovagal, number of subjects (2.0 g/day (n = 9)): 1 | Syncope vasovagal, percent of subjects (2.0 g/day (n = 9)): (11%) | Tenderness, number of subjects (2.0 g/day (n = 9)): 0 | Thermal burn, number of subjects (2.0 g/day (n = 9)): 1 | Thermal burn, percent of subjects (2.0 g/day (n = 9)): (11%) | Urine output increased, number of subjects (2.0 g/day (n = 9)): 0 | Vomiting, number of subjects (2.0 g/day (n = 9)): 0 | dose-limiting toxicities [1]: no dose-limiting toxicities | serious adverse events [1]: no serious adverse events
